Literature values, collected in patent publication US20120015039A1, “SUSTAINED RELEASE OF NUTRIENTS IN VIVO” (New World Pharmaceuticals, LLC, priority 2007, published 2012).

Legend:
mice = conditions: mouse, in vivo, iv

SMILES	LD50 (mice)	concentration at which formation of EP is inhibited (Na/K ATPase)
COC(=O)C1=CO[C@@H](O)[C@@H]2C(CO)=CC[C@H]12 [Genipin]	382 mg/kg	–
[O]=[V]([O-])([O-])[O-] [vanadate]	–	less than 1 micromolar
